In ChEMBL document CHEMBL1201862, “PubChem BioAssay data set” (2004):
The source made the active and inactive calls.

Tests used:
[1] = biological target: Cytochrome P450 3A4 (Homo sapiens, UniProt P08684);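 note: CYP3A4 tested as one member of a cytochrome P450 panel screen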
[2] = biological target: Adenosylmethionine-8-amino-7-oxononanoate aminotransferase (Mycobacterium tuberculosis, UniProt P9WQ81); assay: Mycobacterium tuberculosis BioA enzyme inhibitor Measured in Biochemical System Using Plate Reader - 2163-02_Inhibitor_Dose_CherryPick_Activity.; type: functional, Mycobacterium tuberculosis UT205
[3] = biological target: Cytochrome P450 2D6 (Homo sapiens, UniProt P10635);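 note: CYP2D6 member of a cytochrome P450 panel assay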
Sequence of Cytochrome P450 2D6 (P10635 whole entry): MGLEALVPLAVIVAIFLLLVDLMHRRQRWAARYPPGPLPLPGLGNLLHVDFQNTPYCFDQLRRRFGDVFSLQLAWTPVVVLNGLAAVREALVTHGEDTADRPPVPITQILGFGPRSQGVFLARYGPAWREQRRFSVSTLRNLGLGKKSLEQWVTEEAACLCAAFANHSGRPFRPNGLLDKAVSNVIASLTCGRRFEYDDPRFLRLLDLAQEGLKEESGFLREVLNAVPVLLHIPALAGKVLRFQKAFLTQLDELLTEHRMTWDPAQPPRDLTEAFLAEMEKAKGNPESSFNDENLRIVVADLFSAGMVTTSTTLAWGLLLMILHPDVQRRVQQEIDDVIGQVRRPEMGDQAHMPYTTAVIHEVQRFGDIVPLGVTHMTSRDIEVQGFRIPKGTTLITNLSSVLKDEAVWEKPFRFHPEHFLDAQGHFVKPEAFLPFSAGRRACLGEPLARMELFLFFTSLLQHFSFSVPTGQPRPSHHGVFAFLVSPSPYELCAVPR

[4] = biological target: T1, Cytochrome P450 1A2 (Homo sapiens, UniProt P05177);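 note: PubChem cytochrome P450 panel assay, CYP1A2 panel member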
T1 sequence (P05177 whole entry): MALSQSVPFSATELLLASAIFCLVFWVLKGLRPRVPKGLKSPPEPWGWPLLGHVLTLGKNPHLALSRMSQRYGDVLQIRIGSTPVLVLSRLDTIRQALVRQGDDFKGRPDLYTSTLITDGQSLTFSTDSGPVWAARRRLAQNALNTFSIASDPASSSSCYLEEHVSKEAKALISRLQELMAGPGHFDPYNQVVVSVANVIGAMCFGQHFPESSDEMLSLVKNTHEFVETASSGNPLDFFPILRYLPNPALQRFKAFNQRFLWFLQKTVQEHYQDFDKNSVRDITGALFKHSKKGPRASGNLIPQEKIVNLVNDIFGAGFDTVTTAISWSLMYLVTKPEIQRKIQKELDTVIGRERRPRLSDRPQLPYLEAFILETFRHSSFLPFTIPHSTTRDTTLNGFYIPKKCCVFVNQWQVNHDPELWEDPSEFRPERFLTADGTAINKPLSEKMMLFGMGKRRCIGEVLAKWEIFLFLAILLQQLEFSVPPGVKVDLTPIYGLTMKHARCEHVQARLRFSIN

[5] = biological target: T2, Tyrosine-protein phosphatase non-receptor type 22 (Homo sapiens, UniProt Q9Y2R2); assay: LYP phosphatase inhibition for selectivity, dose response, selectivity assay for LMPTP inhibitor project, biochemical, fluorescence, LYP catalytic domain (AID 652006); type: functional; conditions: read-out: IC50_Mean
T2 sequence (Q9Y2R2 whole entry): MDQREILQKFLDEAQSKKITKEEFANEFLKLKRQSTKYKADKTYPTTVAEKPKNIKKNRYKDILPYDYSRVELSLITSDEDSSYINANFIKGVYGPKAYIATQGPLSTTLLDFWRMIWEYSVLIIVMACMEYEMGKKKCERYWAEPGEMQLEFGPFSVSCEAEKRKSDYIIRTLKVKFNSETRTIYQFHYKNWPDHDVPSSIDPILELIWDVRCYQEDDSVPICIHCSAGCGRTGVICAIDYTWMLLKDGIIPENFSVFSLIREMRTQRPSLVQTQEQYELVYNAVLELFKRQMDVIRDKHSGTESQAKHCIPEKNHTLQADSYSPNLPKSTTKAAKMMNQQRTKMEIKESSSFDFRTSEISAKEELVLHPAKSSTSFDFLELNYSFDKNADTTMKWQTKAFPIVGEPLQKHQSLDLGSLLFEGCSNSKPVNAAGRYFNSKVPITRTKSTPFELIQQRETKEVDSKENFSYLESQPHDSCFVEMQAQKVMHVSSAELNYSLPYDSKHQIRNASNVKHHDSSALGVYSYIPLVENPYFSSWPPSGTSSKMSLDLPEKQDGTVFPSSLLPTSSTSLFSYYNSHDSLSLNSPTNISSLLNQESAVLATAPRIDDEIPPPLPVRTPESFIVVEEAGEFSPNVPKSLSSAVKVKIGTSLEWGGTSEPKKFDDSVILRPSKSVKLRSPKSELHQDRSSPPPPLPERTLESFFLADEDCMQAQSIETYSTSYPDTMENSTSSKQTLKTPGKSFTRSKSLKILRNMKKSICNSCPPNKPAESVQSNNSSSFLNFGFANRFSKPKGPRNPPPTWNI

[6] = biological target: T3, Low molecular weight phosphotyrosine protein phosphatase (Homo sapiens, UniProt P24666); type: functional; conditions: read-out: IC50_Mean
T3 sequence (P24666 whole entry): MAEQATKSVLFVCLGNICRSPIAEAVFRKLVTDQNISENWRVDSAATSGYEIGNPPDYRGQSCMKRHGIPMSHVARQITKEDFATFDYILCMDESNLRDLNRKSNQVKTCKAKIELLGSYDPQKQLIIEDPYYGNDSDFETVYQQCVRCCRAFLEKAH

[7] = biological target: T3, Low molecular weight phosphotyrosine protein phosphatase; type: functional; conditions: read-out: IC50_Mean; remark: listed apart in the source
[8] = biological target: Beta Lactamase (Pseudomonas aeruginosa, UniProt Q932Y6); assay: beta-lactamase reporter inhibitor potency, dose response, artefact control for NOD2-RIPK2 interaction inhibitor project, BLA reporter cells, FRET fluorescence (AID 651552); type: functional, cell-based
Sequence of Beta Lactamase (Q932Y6 whole entry): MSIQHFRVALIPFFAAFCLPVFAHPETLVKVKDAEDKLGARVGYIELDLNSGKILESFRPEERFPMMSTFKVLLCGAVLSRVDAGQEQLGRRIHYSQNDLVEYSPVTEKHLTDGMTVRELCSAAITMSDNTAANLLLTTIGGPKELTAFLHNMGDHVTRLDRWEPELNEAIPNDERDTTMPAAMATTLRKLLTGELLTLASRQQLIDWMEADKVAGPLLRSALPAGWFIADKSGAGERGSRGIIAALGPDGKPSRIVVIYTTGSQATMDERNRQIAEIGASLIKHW

[9] = biological target: T4, Replicative DNA helicase DnaB (Mycobacterium tuberculosis, UniProt P9WMR3); assay: DnaB intein splicing inhibitors, dose response, biochemical, cell-free fluorescence (AID 449749); type: functional
T4 sequence (P9WMR3 whole entry): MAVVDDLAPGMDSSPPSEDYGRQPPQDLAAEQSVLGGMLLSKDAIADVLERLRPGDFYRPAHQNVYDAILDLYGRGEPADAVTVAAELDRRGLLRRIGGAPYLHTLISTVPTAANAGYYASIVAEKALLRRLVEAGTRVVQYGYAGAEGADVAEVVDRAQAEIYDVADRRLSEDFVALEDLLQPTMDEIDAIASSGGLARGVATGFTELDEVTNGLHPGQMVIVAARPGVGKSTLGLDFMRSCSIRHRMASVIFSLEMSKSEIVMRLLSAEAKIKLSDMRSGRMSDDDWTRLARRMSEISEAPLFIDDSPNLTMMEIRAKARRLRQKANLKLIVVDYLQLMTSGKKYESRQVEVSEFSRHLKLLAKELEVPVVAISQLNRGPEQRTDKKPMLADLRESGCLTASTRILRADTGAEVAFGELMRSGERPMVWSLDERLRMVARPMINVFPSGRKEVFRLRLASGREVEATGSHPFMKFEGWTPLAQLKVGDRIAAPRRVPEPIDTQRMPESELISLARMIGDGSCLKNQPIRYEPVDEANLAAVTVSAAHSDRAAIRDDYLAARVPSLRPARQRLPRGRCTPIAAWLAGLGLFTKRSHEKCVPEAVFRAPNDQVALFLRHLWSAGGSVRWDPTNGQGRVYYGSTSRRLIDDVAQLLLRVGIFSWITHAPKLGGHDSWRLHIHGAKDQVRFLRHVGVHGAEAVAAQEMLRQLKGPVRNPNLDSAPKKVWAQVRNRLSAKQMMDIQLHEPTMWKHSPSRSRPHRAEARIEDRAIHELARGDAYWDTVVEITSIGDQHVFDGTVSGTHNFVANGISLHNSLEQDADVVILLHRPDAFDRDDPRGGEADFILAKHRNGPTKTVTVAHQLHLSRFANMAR

[10] = biological target: T5, Protein RecA (Mycobacterium tuberculosis, UniProt P9WHJ3); assay: Fluorescence Cell-Free Homogeneous Dose Retest to Identify Inhibitors of RecA-Intein Splicing Activity. [Related pubchem assays (depositor defined):AID2097, AID2223, AID489010, AID492950]; type: functional
T5 sequence (P9WHJ3 whole entry): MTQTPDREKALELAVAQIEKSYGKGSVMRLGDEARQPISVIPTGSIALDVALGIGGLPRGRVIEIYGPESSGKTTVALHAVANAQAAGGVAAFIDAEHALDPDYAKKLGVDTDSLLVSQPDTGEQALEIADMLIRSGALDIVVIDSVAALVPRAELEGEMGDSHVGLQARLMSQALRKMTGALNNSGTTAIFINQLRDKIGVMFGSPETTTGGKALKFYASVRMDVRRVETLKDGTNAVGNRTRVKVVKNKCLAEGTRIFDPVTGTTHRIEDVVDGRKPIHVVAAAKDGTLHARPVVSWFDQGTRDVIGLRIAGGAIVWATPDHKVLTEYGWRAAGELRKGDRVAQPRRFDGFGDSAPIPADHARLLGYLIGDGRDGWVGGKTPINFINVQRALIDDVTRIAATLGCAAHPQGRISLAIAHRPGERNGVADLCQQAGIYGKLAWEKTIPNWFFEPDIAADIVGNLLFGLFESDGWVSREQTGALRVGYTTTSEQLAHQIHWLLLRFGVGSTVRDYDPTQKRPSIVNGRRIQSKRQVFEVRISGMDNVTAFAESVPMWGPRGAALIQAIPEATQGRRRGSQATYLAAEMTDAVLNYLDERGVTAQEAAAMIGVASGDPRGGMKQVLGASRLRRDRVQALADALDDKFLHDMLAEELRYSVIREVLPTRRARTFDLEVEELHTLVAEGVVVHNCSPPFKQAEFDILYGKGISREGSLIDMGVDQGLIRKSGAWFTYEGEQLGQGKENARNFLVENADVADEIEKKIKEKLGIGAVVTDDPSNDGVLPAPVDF

[11] = Fluorescence-based cell-based high throughput dose response assay for inhibitors of the interaction of nucleotide-binding oligomerization domain containing 2 (NOD2) and the receptor-interacting serine-threonine kinase 2 (RIPK2).; type: functional; conditions: Homo sapiens
[12] = biological target: T6, Heat shock factor protein 1 (Mus musculus, UniProt P38532); assay: inhibition of MG132-induced HSE-luciferase signal, confirmation, cell-based, NIH3T3, luminescence, dose retest (AID 2382); type: functional;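 note: NIH3T3 fibroblasts with HSF1-driven luciferase reporter stressed by proteasome inhibitor MG132; luminescence from HSF1-driven luciferase expression after 8 hours of MG132 stress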
T6 sequence (P38532 whole entry): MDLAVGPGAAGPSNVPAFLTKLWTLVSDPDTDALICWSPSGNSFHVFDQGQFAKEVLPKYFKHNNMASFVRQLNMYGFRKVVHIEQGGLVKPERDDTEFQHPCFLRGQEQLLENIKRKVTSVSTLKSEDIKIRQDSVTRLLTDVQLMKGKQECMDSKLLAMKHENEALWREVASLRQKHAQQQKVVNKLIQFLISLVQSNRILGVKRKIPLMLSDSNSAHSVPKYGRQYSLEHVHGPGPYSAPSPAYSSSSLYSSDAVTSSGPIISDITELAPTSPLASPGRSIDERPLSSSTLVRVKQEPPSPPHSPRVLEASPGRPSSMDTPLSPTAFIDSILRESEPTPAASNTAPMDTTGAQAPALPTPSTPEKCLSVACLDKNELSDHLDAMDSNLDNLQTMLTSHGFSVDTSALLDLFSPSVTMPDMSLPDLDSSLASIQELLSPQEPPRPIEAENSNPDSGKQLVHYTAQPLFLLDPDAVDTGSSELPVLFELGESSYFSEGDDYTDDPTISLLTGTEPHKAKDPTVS

[13] = biological target: Neurotensin receptor type 1 (Homo sapiens, UniProt P30989); type: functional;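 note: Image-based confirmatory dose-response assay measuring agonist activity at NTR1; NTR1-expressing U2OS osteosarcoma cells imaged for beta-arrestin GFP spot formation; agonist potency where compounds increase beta-arrestin recruitment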
[14] = biological target: Mitochondrial peptide methionine sulfoxide reductase (Bos taurus, UniProt P54149); type: functional;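 note: absorbance read-out, biochemical high-throughput dose-response screen for MsrA inhibitors, confirmatory; recombinant bovine MsrA coupled to E. coli TrxB with NADPH and selenocystamine; potency is for inhibitors of MsrA activity on DMSO substrate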
Sequence of Mitochondrial peptide methionine sulfoxide reductase (P54149 whole entry): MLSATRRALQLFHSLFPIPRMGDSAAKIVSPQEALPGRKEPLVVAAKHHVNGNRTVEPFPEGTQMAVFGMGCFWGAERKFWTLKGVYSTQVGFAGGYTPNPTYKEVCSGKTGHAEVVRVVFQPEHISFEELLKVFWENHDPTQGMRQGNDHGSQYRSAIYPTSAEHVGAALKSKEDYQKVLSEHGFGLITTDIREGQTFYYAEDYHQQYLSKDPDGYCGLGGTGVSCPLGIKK

[15] = HepG2 cell cytotoxicity, dose response, cytotoxicity control for Shn3 inhibitor project, CellTiter-Glo, cherry-picked (AID 624134); type: functional, cell-based
[16] = biological target: T7, Interleukin-8 (Homo sapiens, UniProt P10145); assay: Dose Response confirmation of uHTS small molecule hits for cystic fibrosis induced NFkb Inhibitors in a PAF-induced IL8 counterscreen.; type: functional; conditions: read-out: IC50_Mean
T7 sequence (P10145 whole entry): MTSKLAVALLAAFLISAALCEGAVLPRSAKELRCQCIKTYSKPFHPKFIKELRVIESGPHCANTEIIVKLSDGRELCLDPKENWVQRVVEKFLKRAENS

[17] = biological target: T7, Interleukin-8; assay: Dose Response confirmation of uHTS small molecule hits for cystic fibrosis induced NFkb Inhibitors in a TNFa-induced IL8 counterscreen.; type: functional; conditions: read-out: IC50_Mean
[18] = biological target: T8, Fatty acid synthase (Homo sapiens, UniProt P49327); assay: FAS thioesterase domain inhibitors, dose response, biochemical, endpoint fluorescence intensity, uHTS hits (AID 624327); type: functional;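 note: fluorescence from hydrolysis of an O-methyl fluorescein acyl ester substrate by the enzyme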
T8 sequence (P49327 whole entry, the tested form may be a part): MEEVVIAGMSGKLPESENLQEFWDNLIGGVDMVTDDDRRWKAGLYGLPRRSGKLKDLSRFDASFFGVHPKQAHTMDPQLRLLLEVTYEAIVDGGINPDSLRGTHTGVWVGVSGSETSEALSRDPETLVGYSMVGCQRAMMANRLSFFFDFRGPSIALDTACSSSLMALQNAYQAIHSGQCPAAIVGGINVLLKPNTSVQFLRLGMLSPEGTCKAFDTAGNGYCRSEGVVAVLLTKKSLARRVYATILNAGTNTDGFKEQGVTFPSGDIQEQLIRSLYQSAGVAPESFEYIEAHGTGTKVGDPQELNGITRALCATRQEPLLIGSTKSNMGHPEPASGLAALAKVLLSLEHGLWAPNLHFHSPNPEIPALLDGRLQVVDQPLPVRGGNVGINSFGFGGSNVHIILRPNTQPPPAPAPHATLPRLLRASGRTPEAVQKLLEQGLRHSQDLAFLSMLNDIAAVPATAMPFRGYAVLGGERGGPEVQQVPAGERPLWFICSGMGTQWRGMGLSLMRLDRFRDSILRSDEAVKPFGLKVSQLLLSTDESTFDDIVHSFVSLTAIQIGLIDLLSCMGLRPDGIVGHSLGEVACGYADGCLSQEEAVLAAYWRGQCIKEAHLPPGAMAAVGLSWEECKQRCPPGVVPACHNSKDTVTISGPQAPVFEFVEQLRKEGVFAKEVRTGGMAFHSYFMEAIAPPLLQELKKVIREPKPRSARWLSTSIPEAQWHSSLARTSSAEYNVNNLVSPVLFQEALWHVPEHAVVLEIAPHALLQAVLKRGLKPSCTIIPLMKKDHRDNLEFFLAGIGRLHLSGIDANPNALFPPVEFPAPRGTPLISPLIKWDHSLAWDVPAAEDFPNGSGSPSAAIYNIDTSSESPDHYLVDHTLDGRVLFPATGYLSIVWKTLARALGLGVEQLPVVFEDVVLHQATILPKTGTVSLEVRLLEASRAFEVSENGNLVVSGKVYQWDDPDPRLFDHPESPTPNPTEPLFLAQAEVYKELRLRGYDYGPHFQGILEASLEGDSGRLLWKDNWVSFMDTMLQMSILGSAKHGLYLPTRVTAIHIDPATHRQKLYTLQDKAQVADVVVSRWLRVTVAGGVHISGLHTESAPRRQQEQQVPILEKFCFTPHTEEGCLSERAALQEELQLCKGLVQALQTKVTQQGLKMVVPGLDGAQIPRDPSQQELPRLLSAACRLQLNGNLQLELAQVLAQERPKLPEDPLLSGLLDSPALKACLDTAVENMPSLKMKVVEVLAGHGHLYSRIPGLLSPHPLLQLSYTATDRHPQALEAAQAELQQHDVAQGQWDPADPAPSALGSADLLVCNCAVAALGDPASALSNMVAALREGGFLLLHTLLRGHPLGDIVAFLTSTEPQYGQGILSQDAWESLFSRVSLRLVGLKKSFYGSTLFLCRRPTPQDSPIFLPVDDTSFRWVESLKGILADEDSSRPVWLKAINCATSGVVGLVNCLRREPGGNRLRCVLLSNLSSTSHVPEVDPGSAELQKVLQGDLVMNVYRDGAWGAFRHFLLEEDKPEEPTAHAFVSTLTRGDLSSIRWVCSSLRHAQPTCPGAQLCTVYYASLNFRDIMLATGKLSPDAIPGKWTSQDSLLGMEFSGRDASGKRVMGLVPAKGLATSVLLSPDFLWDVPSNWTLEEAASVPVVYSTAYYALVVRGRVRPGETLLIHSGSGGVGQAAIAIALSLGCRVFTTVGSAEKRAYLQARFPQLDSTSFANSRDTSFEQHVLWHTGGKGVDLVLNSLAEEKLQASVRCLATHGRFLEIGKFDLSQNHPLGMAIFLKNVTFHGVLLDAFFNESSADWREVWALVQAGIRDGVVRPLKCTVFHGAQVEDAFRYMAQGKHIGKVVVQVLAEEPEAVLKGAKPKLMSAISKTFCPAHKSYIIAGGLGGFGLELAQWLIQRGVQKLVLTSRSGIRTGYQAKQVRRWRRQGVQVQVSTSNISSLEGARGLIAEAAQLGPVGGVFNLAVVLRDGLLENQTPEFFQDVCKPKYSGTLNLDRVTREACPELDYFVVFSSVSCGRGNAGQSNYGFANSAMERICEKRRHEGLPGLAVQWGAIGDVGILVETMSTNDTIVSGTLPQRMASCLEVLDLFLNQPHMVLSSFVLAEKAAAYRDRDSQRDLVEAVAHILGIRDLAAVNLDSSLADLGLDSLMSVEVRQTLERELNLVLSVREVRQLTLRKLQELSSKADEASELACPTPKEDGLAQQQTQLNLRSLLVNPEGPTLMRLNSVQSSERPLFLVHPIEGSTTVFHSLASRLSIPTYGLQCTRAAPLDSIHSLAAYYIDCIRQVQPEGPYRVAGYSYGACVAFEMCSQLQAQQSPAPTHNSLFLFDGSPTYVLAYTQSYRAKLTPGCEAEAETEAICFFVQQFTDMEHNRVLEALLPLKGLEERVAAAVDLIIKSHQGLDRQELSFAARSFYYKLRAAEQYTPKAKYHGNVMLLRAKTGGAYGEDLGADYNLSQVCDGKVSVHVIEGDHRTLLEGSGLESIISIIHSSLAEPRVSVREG

[19] = control 3'UTR Renilla luciferase suppression, dose response, counter-screen for Shn3 inhibitor project, cell-based, Clone20-Shn3RL, cherry-picked (AID 624133); type: functional
[20] = biological target: 5-hydroxytryptamine receptor 2A (Mus musculus, UniProt P35363); type: functional, cell-based;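 note: CHO-K1 cells with tagged receptor and beta-arrestin; agonist potency measured as compound-induced activation of the receptor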
[21] = Shn3 3'UTR reporter inhibitors, dose response, cell-based, Clone20 osteoblasts, firefly luciferase, cherry-picked (AID 624132); type: functional;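 note: firefly luciferase luminescence from reporter carrying the Shn3 3'UTR in osteoblasts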
[22] = biological target: T8, Fatty acid synthase; assay: FAS thioesterase domain inhibitors, dose response, biochemical, kinetic fluorescence intensity (AID 624326); type: functional;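 note: rate of fluorescence rise from hydrolysis of a fluorogenic O-methyl fluorescein ester substrate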
[23] = test system: HEK293; assay: inhibitors of LMP1-driven NF-kB reporter, dose response, cell-based, HEK293, luciferase, cherry-pick (AID 588343); type: functional; conditions: Homo sapiens
[24] = biological target: Mu-type opioid receptor (Homo sapiens, UniProt P35372); type: functional, cell-based;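 note: U2OS cells with beta-arrestin recruitment to OPRM1 by beta-gal complementation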
Sequence of Mu-type opioid receptor (P35372 whole entry): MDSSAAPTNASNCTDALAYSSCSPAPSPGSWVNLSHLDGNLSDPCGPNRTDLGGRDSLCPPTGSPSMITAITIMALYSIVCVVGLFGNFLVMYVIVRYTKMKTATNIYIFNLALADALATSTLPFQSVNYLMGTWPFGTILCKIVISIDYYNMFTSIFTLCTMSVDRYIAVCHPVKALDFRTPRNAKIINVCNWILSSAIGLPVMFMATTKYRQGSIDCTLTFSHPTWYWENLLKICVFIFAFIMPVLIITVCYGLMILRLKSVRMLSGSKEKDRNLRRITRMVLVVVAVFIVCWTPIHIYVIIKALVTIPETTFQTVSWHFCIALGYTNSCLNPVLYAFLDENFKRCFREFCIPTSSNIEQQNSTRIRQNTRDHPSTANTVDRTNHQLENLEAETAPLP

[25] = StAR promoter reporter inhibition counter-screen, dose response, counter-screen for LRH-1 inverse agonist project, cell-based, luminescence, luciferase reporter (AID 651969); type: functional
[26] = biological target: Nuclear receptor subfamily 5 group A member 2 (Homo sapiens, UniProt O00482); type: functional, cell-based;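 note: HEK293T cells transfected with LRH-1 and a StAR promoter luciferase reporter; potency for inhibitors that lower LRH-1 driven reporter light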
[27] = biological target: Steroidogenic factor 1 (Homo sapiens, UniProt Q13285); assay: Counterscreen for inverse agonists of the liver receptor homolog-1 (LRH-1; NR5A2): Luminescence-based cell-based high throughput dose response assay to identify inverse agonists of the Steroidogenic Factor 1 Nuclear Receptor (SF1; NR5A1).; type: functional
Sequence of Steroidogenic factor 1 (Q13285 whole entry): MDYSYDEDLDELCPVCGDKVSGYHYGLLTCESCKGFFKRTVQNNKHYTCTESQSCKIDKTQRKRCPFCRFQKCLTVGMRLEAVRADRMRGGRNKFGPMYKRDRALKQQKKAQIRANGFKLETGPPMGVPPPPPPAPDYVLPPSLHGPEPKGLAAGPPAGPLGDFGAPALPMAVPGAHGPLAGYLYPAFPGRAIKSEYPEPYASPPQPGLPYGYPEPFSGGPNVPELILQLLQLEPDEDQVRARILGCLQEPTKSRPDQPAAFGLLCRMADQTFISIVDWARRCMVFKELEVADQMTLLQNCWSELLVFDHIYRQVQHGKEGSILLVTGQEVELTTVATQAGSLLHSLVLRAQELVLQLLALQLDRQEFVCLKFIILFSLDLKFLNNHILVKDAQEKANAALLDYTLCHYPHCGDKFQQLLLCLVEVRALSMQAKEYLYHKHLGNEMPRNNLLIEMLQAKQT

[28] = AlphaScreen signal interference compounds, dose response, artefact control for ARNT-TACC3 interaction inhibitor project, biochemical, luminescence, cherry-pick (AID 651705); type: functional;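 note: AlphaScreen bead proximity signal that flags compounds interfering with the detection technology; potency reflects signal decrease which marks the compound as an assay artifact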

Sequence of Cytochrome P450 3A4 (P08684 whole entry): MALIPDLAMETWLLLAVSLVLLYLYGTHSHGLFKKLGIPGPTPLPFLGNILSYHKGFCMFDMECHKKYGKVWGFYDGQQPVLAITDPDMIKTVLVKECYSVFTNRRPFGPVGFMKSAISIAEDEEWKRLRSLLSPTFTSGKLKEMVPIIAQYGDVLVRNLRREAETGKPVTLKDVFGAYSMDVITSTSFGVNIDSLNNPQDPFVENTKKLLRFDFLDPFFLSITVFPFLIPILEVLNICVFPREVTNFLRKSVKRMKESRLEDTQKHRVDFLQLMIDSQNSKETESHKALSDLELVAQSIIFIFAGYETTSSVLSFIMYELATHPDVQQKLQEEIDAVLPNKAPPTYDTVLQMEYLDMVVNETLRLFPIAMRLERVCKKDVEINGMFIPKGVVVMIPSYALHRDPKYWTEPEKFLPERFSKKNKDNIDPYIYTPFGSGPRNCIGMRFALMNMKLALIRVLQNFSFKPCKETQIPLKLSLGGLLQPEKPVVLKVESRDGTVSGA

Cc1ccc(Cc2c(C)nc3nc(SCC(=O)NCc4ccco4)nn3c2C)cc1
AC50 [1]: 3.16 µM (inconclusive)
AC50 [2]: 4.86 µM (active)
AC50 [3]: 25.1 µM (inconclusive)
AC50 [4]: 0.00631 µM (inconclusive)

COc1cccc(N2CCN(C(=O)c3ccc(CSc4nc5cc[nH]cc-5n4)cc3)CC2)c1
IC50 [5]: 65 µM (inactive)
IC50 [6]: 14.3 µM (active)
IC50 [7]: > 80 µM (inactive)

Cn1ccnc1Sc1cc(NCCCO)c([N+](=O)[O-])c2nonc12
IC50 [8]: 18.2 µM (inactive)
AC50 [9]: 8.37 µM (active)
EC50 [10]: 3.32 µM (active)
IC50 [11]: 5.86 µM (active)
EC50 [12]: 11.8 µM (active)
EC50 [13]: 13.2 µM (active)

CCCCCOC(=O)C(C)c1c(C)nc(S)nc1O (stereo not drawn)
IC50 [14]: 115 µM (inactive)

O=[N+]([O-])c1ccc2ncnc(N3CCN(Cc4ccc5c(c4)OCO5)CC3)c2c1
AC50 [15]: 35.6 µM (active)
IC50 [16]: 47.9 µM (inactive)
IC50 [17]: 40.4 µM (inactive)
IC50 [18]: 1.39 µM (active)
AC50 [19]: 26.5 µM (active)
EC50 [20]: 3.78 µM (active)
AC50 [21]: 2.73 µM (active)
IC50 [22]: 0.843 µM (active)
AC50 [23]: 5.4 µM (active)
EC50 [24]: 92.5 µM (inactive)

CCOCC(=O)Nc1ccc(S(=O)(=O)NCCc2ccccc2)cc1
IC50 [25]: 35.9 µM (inactive)
IC50 [26]: 18.4 µM (inactive)
IC50 [27]: 5.7 µM (active)

CCCCCC/C=N/Nc1nnc(Cc2ccc(OC)c(OC)c2)c(O)n1
AC50 [28]: 132 µM (active)
